Reference: PubChem BioAssay AID248 (DTP/NCI, 2004)
Toxic doses and inconclusive results are not listed. No stated cut-off is given here; in the data, active means T/C of 150% or more; inactive means T/C below 125%.

System: L1210 leukemia ip in BDF1 mice, survival T/C
Test: NCI In Vivo Anticancer Drug Screen. Data for tumor model L1210 Leukemia (intraperitoneal) in B6D2F1 (BDF1) mice
Details: endpoint: mean survival time, higher = longer survival
Outline: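 Mice bearing the transplanted tumor received compound or vehicle. Survival of the treated group was divided by that of the vehicle-treated control group to give the ratio.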

[1] = dose: 100.0 mg/kg/injection, schedule: Q04DX003 (ip), vehicle: Klucel (hydroxypropylcellulose) (HPC)
[2] = dose: 50.0 mg/kg/injection, schedule: Q01DX009 (ip), vehicle: Klucel (hydroxypropylcellulose) (HPC)
[3] = dose: 100.0 mg/kg/injection, schedule: Q01DX009 (ip), vehicle: Klucel (hydroxypropylcellulose) (HPC)
[4] = dose: 200.0 mg/kg/injection, schedule: Q01DX009 (ip), vehicle: Klucel (hydroxypropylcellulose) (HPC)
[5] = dose: 100.0 mg/kg/injection, schedule: Q04DX002 (ip), vehicle: saline
[6] = dose: 100.0 mg/kg/injection, schedule: Q04DX003 (ip), vehicle: saline with Tween-80
[7] = dose: 200.0 mg/kg/injection, schedule: Q04DX002 (ip), vehicle: saline
[8] = dose: 200.0 mg/kg/injection, schedule: Q04DX003 (ip), vehicle: saline with Tween-80
[9] = dose: 400.0 mg/kg/injection, schedule: Q04DX002 (ip), vehicle: saline
[10] = dose: 200.0 mg/kg/injection, schedule: Q04DX003 (ip), vehicle: Klucel (hydroxypropylcellulose) (HPC)
[11] = dose: 400.0 mg/kg/injection, schedule: Q04DX003 (ip), vehicle: Klucel (hydroxypropylcellulose) (HPC)
[12] = dose: 100.0 mg/kg/injection, schedule: Q01DX009 (ip), vehicle: saline with Tween-80
[13] = dose: 200.0 mg/kg/injection, schedule: Q01DX009 (ip), vehicle: saline with Tween-80
[14] = dose: 400.0 mg/kg/injection, schedule: Q04DX003 (ip), vehicle: saline with Tween-80
[15] = dose: 75.0 mg/kg/injection, schedule: Q01DX001 (ip), vehicle: saline
[16] = dose: 150.0 mg/kg/injection, schedule: Q01DX001 (ip), vehicle: saline

Measured: T/C

C[Se](=O)O
inactive: dose: 3.13 mg/kg/injection, schedule: Q01DX001 (ip), vehicle: saline 94 % of control | dose: 6.25 mg/kg/injection, schedule: Q01DX001 (ip), vehicle: saline 91 % of control | dose: 12.5 mg/kg/injection, schedule: Q01DX001 (ip), vehicle: saline 88 % of control

CS(=O)(=O)OCCN(CCOS(C)(=O)=O)c1ccc(C=Nc2cc(Br)c(O)c(Br)c2)cc1
inactive: dose: 20.0 mg/kg/injection, schedule: Q04DX003 (ip), vehicle: Klucel (hydroxypropylcellulose) (HPC) 120 % of control | dose: 40.0 mg/kg/injection, schedule: Q04DX003 (ip), vehicle: Klucel (hydroxypropylcellulose) (HPC) 104 % of control | dose: 80.0 mg/kg/injection, schedule: Q04DX003 (ip), vehicle: Klucel (hydroxypropylcellulose) (HPC) 96 % of control | [1] 113 % of control

Cc1c(CC#N)cc(C)c2c3c([nH]c12)CCCC3
inactive: [2] 95 % of control | [3] 98 % of control | [4] 91 % of control

COC(=O)C1OCOC2C(CO)OCOC12 (stereo not given)
inactive: [5] 91 % of control | [6] 91 % of control | [7] 117 % of control | [8] 86 % of control | [9] 106 % of control

O=C(COc1ccccc1)Nc1ccc([N+](=O)[O-])cc1O
inactive: [1] 97 % of control | [10] 100 % of control | [11] 103 % of control

Cc1ccc(S(=O)(=O)OCC2COC(C(Cl)(Cl)Cl)O2)cc1 (stereo not given)
inactive: [12] 94 % of control | [6] 106 % of control | [13] 92 % of control | [8] 113 % of control | dose: 400.0 mg/kg/injection, schedule: Q01DX009 (ip), vehicle: saline with Tween-80 94 % of control | [14] 110 % of control

CCOC(=O)CNC(=O)Nc1ccc(C(=O)OCC)cc1
inactive: [12] 98 % of control | [13] 92 % of control

Cc1cc(=O)n(-c2ccccc2)n1C.[Cl-].[Cl-].[Cl-].[Cl-].[Pt+2]
inactive: [6] 97 % of control | [8] 103 % of control | [14] 105 % of control

O=[N+]([O-])c1ccc(/C=N/Nc2nnc(N/N=C/c3ccc([N+](=O)[O-])cc3)c3ccccc23)cc1
inactive: dose: 50.0 mg/kg/injection, schedule: Q01DX001 (ip), vehicle: carboxymethylcellulose (CMC) 93 % of control | dose: 100.0 mg/kg/injection, schedule: Q01DX001 (ip), vehicle: carboxymethylcellulose (CMC) 101 % of control | dose: 200.0 mg/kg/injection, schedule: Q01DX001 (ip), vehicle: carboxymethylcellulose (CMC) 93 % of control | dose: 400.0 mg/kg/injection, schedule: Q01DX001 (ip), vehicle: carboxymethylcellulose (CMC) 98 % of control

O=[N+]([O-])c1ccc(N2CCCCC2)cc1
inactive: dose: 100.0 mg/kg/injection, schedule: Q01DX001 (ip), vehicle: other 108 % of control | [1] 107 % of control | dose: 200.0 mg/kg/injection, schedule: Q01DX001 (ip), vehicle: other 90 % of control | [10] 104 % of control | dose: 222.0 mg/kg/injection, schedule: Q01DX Z (ip), vehicle: methylcellulose (MC) 102 % of control | dose: 333.0 mg/kg/injection, schedule: Q01DX Z (ip), vehicle: methylcellulose (MC) 94 % of control | dose: 400.0 mg/kg/injection, schedule: Q01DX001 (ip), vehicle: other 103 % of control | [11] 107 % of control | dose: 500.0 mg/kg/injection, schedule: Q01DX Z (ip), vehicle: methylcellulose (MC) 100 % of control

Cc1ccccc1Nc1cc(=O)[nH]c(N)n1
inactive: dose: 100.0 mg/kg/injection, schedule: Q01DX Z (ip), vehicle: methylcellulose (MC) 102 % of control | dose: 200.0 mg/kg/injection, schedule: Q01DX Z (ip), vehicle: methylcellulose (MC) 102 % of control

O=C1C(Br)=CC(=C2C=C(Br)C(=O)C(Br)=C2)C=C1Br
inactive: [2] 104 % of control | [3] 117 % of control | [1] 96 % of control | [4] 104 % of control | [10] 108 % of control

Cc1cccc(-n2cnc3c(=O)[nH]c(N)nc32)c1
inactive: [1] 95 % of control | [10] 95 % of control | [11] 93 % of control

COc1cc2cc[n+](C)c(Cc3ccccc3)c2cc1OC
inactive: dose: 25.0 mg/kg/injection, schedule: Q01DX009 (ip), vehicle: saline with Tween-80 111 % of control | dose: 25.0 mg/kg/injection, schedule: Q04DX003 (ip), vehicle: saline with Tween-80 105 % of control | dose: 50.0 mg/kg/injection, schedule: Q01DX009 (ip), vehicle: saline with Tween-80 107 % of control | dose: 50.0 mg/kg/injection, schedule: Q04DX003 (ip), vehicle: saline with Tween-80 103 % of control | [6] 96 % of control

COC(=O)CCNc1c(OC)ccc2ccccc12
inactive: [3] 101 % of control | dose: 400.0 mg/kg/injection, schedule: Q01DX009 (ip), vehicle: Klucel (hydroxypropylcellulose) (HPC) 98 % of control

CCCCCCCCP(=O)(CCCC)CCCC
inactive: [6] 96 % of control | [8] 107 % of control

CCC(Sc1ccccc1[N+](=O)[O-])[N+](=O)[O-] (stereo not given)
inactive: [1] 105 % of control | [10] 95 % of control | [11] 100 % of control

C=CC[n+]1cccc(S(=O)(=O)[O-])c1
inactive: dose: 100.0 mg/kg/injection, schedule: Q04DX003 (ip), vehicle: saline 101 % of control | dose: 200.0 mg/kg/injection, schedule: Q04DX003 (ip), vehicle: saline 98 % of control | dose: 400.0 mg/kg/injection, schedule: Q04DX003 (ip), vehicle: saline 103 % of control

CC(=O)CP(=O)(O)O
inactive: [5] 97 % of control | [7] 94 % of control | [9] 94 % of control

CNC(=O)NC(C)=C(C#N)C#N
inactive: [15] 94 % of control | [16] 111 % of control

Nc1ncnc2nn(C3OC(CO)C(O)C3O)nc12 (stereo not given)
inactive: [15] 105 % of control | [16] 105 % of control | dose: 300.0 mg/kg/injection, schedule: Q01DX001 (ip), vehicle: saline 108 % of control
